From PubChem BioAssay (NCI)
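Cultured in 96-well plates, cells were exposed to test compound for 48 hours across five concentrations. At the GI50, growth is halved. Definition used: TGI = concentration required for complete inhibition of growth.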

Key:
Experiment in all cases: NCI tumour cell line growth inhibition, 48 h
[1] = system: 786-0 renal
[2] = system: A498 renal
[3] = system: A549 NSCLC
[4] = system: ACHN renal
[5] = system: BT-549 breast
[6] = system: CAKI-1 renal
[7] = system: CCRF-CEM leukemia
[8] = system: COLO 205 colon
[9] = system: DU-145 prostate
[10] = system: EKVX NSCLC
[11] = system: HCC-2998 colon
[12] = system: HCT-116 colon
[13] = system: HCT-15 colon
[14] = system: HL-60(TB) leukemia
[15] = system: HOP-62 NSCLC
[16] = system: HOP-92 NSCLC
[17] = system: HS 578T breast
[18] = system: HT29 colon
[19] = system: IGROV1 ovarian
[20] = system: K-562 leukemia
[21] = system: KM12 colon
[22] = system: LOX IMVI melanoma
[23] = system: M14 melanoma
[24] = system: MALME-3M melanoma
[25] = system: MCF7 breast
[26] = system: MDA-MB-231 breast
[27] = system: MDA-MB-435
[28] = system: MDA-MB-468 breast
[29] = system: MOLT-4 leukemia
[30] = system: NCI-H226 lung
[31] = system: NCI-H23 lung
[32] = system: NCI-H460 lung
[33] = system: NCI-H522 lung
[34] = system: NCI/ADR-RES ovarian
[35] = system: OVCAR-3 ovarian
[36] = system: OVCAR-4 ovarian
[37] = system: OVCAR-5 ovarian
[38] = system: OVCAR-8 ovarian
[39] = system: PC-3 prostate
[40] = system: RPMI-8226 leukemia
[41] = system: RXF 393 renal
[42] = system: SF-268 CNS
[43] = system: SF-295 CNS
[44] = system: SF-539 CNS
[45] = system: SK-MEL-2 melanoma
[46] = system: SK-MEL-28 melanoma
[47] = system: SK-MEL-5 melanoma
[48] = system: SK-OV-3 ovarian
[49] = system: SN12C renal
[50] = system: SNB-19 CNS
[51] = system: SNB-75 CNS
[52] = system: SR leukemia
[53] = system: SW-620 colon
[54] = system: T-47D breast
[55] = system: TK-10 renal
[56] = system: U251 CNS
[57] = system: UACC-257 melanoma
[58] = system: UACC-62 melanoma
[59] = system: UO-31 renal

## COc1ccc(CCN2C(=O)/C(=C/c3csc(C#N)n3)SC2=S)cc1
[1]
  GI50: 10.2 µM
  TGI: 22.2 µM
[2]
  GI50: 16.7 µM
  TGI: 30.3 µM
[3]
  GI50: 21.3 µM
  TGI: 56.1 µM
[4]
  GI50: 14.1 µM
  TGI: 27.1 µM
[5]
  GI50: 8.93 µM
  TGI: 21.7 µM
[6]
  GI50: 16.9 µM
  TGI: 31.4 µM
[7]
  GI50: 3.13 µM
  TGI: 9.66 µM
[8]
  GI50: 16 µM
  TGI: 29.5 µM
[9]
  GI50: 4.6 µM
  TGI: 15.6 µM
[10]
  GI50: 18.5 µM
  TGI: 34.4 µM
[11]
  GI50: 15.9 µM
  TGI: 29.4 µM
[12]
  GI50: 7.69 µM
  TGI: 20.7 µM
[13]
  GI50: 6.19 µM
  TGI: 19.7 µM
[14]
  GI50: 14.5 µM
  TGI: 46.8 µM
[15]
  GI50: 17.5 µM
  TGI: 32 µM
[16]
  GI50: 2.13 µM
  TGI: 15.1 µM
[17]
  GI50: 21.8 µM
  TGI: 64.9 µM
[18]
  GI50: 14.1 µM
  TGI: 27.1 µM
[19]
  GI50: 17.9 µM
  TGI: 34.6 µM
[20]
  GI50: 3.52 µM
  TGI: > 100 µM
[21]
  GI50: 3.82 µM
  TGI: 14.1 µM
[22]
  GI50: 3.04 µM
  TGI: 10.5 µM
[23]
  GI50: 11.5 µM
  TGI: 25.1 µM
[24]
  GI50: 14.3 µM
  TGI: 28.9 µM
[25]
  GI50: 4.31 µM
  TGI: 15.9 µM
[26]
  GI50: 11.6 µM
  TGI: 24.1 µM
[27]
  GI50: 12.5 µM
  TGI: 28.3 µM
[28]
  GI50: 3.03 µM
  TGI: 13.2 µM
[29]
  GI50: 3.52 µM
  TGI: 53.1 µM
[30]
  GI50: 14.5 µM
  TGI: 28.8 µM
[31]
  GI50: 14.6 µM
  TGI: 27.7 µM
[32]
  GI50: 18.4 µM
  TGI: 39 µM
[33]
  GI50: 3.03 µM
  TGI: 14 µM
[34]
  GI50: 15.9 µM
  TGI: 32.3 µM
[35]
  GI50: 10.1 µM
  TGI: 21.7 µM
[36]
  GI50: 15.5 µM
  TGI: 47 µM
[37]
  GI50: 15.6 µM
  TGI: 29 µM
[38]
  GI50: 15.2 µM
  TGI: 29.7 µM
[39]
  GI50: 12 µM
  TGI: 26.7 µM
[40]
  GI50: 4.29 µM
  TGI: 30.6 µM
[41]
  GI50: 10.4 µM
  TGI: 22.1 µM
[42]
  GI50: 15 µM
  TGI: 32.7 µM
[43]
  GI50: 17.3 µM
  TGI: 33.9 µM
[44]
  GI50: 10.5 µM
  TGI: 22.3 µM
[45]
  GI50: 12.2 µM
  TGI: 24.9 µM
[46]
  GI50: 12.1 µM
  TGI: 24.5 µM
[47]
  GI50: 15.1 µM
  TGI: 28.3 µM
[48]
  GI50: 18.8 µM
  TGI: 37.4 µM
[49]
  GI50: 12.3 µM
  TGI: 24.8 µM
[50]
  GI50: 14.9 µM
  TGI: 28.1 µM
[51]
  GI50: 16.1 µM
  TGI: 31 µM
[52]
  GI50: 3.59 µM
  TGI: 32.4 µM
[53]
  GI50: 8.45 µM
  TGI: 21.7 µM
[54]
  GI50: 5.7 µM
  TGI: 30.2 µM
[55]
  GI50: 10.7 µM
  TGI: 27.7 µM
[56]
  GI50: 13.1 µM
  TGI: 26.4 µM
[57]
  GI50: 11.7 µM
  TGI: 27.1 µM
[58]
  GI50: 10.9 µM
  TGI: 22.9 µM
[59]
  GI50: 10.8 µM
  TGI: 22.6 µM
